{"source": "patent US20020055528A1", "about": "“Artemisinin analogs having antimalarial, antiproliferative, and antitumor activities and chemoselective methods of making the same” (priority 1999, published 2002)", "format_in_all_cases": "cell-based", "key": {"[1]": {"system": "SK-MEL2", "assay": "NCI 60 cell line screen (SRB), Melanoma"}, "[2]": {"system": "HS 578T", "assay": "NCI 60 cell line screen (SRB), Breast Cancer"}, "[3]": {"system": "U251", "assay": "NCI 60 cell line screen (SRB), CNS Cancer"}, "[4]": {"system": "NCI-H460", "assay": "NCI 60 cell line screen (SRB), Non-Small Cell Lung Cancer"}, "[5]": {"system": "UACC-257", "assay": "NCI 60 cell line screen (SRB), Melanoma"}, "[6]": {"system": "SK-MEL-5", "assay": "NCI 60 cell line screen (SRB), Melanoma"}, "[7]": {"system": "UACC-62", "assay": "NCI 60 cell line screen (SRB), Melanoma"}, "[8]": {"system": "HCT-116", "assay": "NCI 60 cell line screen (SRB), Colon Cancer"}, "[9]": {"system": "RPMI-8226", "assay": "NCI 60 cell line screen (SRB), Leukemia"}, "[10]": {"system": "ACHN", "assay": "NCI 60 cell line screen (SRB), Renal Cancer"}, "[11]": {"system": "MDA-MB231/ATCC", "assay": "NCI 60 cell line screen (SRB), Breast Cancer", "details": "MDA- (first line of MDA-MB231/ATCC)"}, "[12]": {"system": "MALME-3M", "assay": "NCI 60 cell line screen (SRB), Melanoma"}, "[13]": {"system": "CAKI-1", "assay": "NCI 60 cell line screen (SRB), Renal Cancer"}, "[14]": {"system": "HT29", "assay": "NCI 60 cell line screen (SRB), Colon Cancer"}, "[15]": {"system": "murine keratinocyte cell line PE", "assay": "Growth inhibition of PE cells, MTT assay", "details": "100 nanomolar; compared with calcitriol; FIG. 5", "description": "To determine the inhibitory effect of the compositions of the present invention on cell proliferation, screening assays were performed on a murine keratinocyte cell line PE. Cell line PE was chosen for its particular sensitivity to the induction of omithine decarboxylase (ODC) activity by the extensively characterized tumor promoter TPA. Cell line PE was derived from a papilloma-induced in female SENCAR mice by a standard skin initiation/promotion protocol, see Yuspa, S. H., et al., Carcinogenesis, 7:949-958 (1986). PE cell culture medium consisted of Eagle's minimal essential medium without calcium chloride (Whittaker Bioproducts, Walkersville, Mass.) supplemented with 8% chelexed fetal calf serum and 1% antibiotic-antimycotic (Gibco BRL) and the addition of CaCI2 to 0.05 mM Ca^++\nMTT [3-(4,5-dimethylthiazol-2-yl)-2,5-diphenyltetraxolium bromide] was purchased from Sigma Chemical Co. (St. Louis, Mo.), and TPA was supplied by L.C. Services (Woburn, Mass.). L-[^14C]omithine ([…]) was from Amersham/Searle Corp. (Arlington Heights, Ill.). Chemical solvents used in all assays of biological activity were of the highest grade commercially available.\nGrowth curves, shown in FIG. 5, for PE cells treated with calcitriol and the C-10 carbon-substituted dimers VII-f, VII-g and VII-h generated by assay for the reduction of the tetrazolium-based compound MTT, see Charmichael, et al., Cancer Res., 47:936-942 (1987). A mitochondrial dehydrogenase reduces MTT to a blue formazan product with an absorbance maximum of 505 nm in DMSO; the number of viable cells can thus be determined spectrophotometrically. PE cells were seeded at a density of 5,000 cells/well in 50 IL of medium into 96-well microtiter plates. Twelve hours later, the medium was removed, and cells were treated with 100 μL of fresh medium into which the appropriate amount of calcitriol or analog dissolved in dimethyl sulfoxide (DMSO) had been added, with the concentration of DMSO held constant at 0.1 %. […] At 24-hour intervals following the initial treatment of the cells with compounds, 0.1 mg (50 μL of a 2 mg/mL solution) of MTT was added to each well. After 4 hours, the MTT was removed and DMSO added to dissolve the blue formazan dye. Using a microtiter plate reader, the A505 was then determined and cell number calculated from blank-subtracted absorbance values."}, "[16]": {"system": "SNB-19", "assay": "NCI 60 cell line screen (SRB), CNS Cancer"}, "[17]": {"system": "HL-60(TB)", "assay": "NCI 60 cell line screen (SRB), Leukemia"}, "[18]": {"system": "TK-10", "assay": "NCI 60 cell line screen (SRB), Renal Cancer"}, "[19]": {"system": "IGROVI", "assay": "NCI 60 cell line screen (SRB), Ovarian Cancer"}}, "data": [{"smiles": "CC1=C(C=Cc2cccc(C=CC3=C(C)C4CCC(C)C5CCC6(C)OOC45C(O3)O6)c2)OC2OC3(C)CCC4C(C)CCC1C24OO3", "note": "(stereo not drawn) [VII-f]", "values": [{"measurement": "Log10TGI", "setting": "[1]; PG=0", "result": "−4.26", "unit": "log10M"}, {"measurement": "Log10 GI50 or LC50 (per conditions)", "setting": "[1]; PG=+50", "result": "−5.85", "unit": "log10M"}, {"measurement": "Log10 GI50 or LC50 (per conditions)", "setting": "[1]; Table IV (LC50, PG=−50)", "result": ">−4.00", "unit": "log10M"}, {"measurement": "Log10TGI", "setting": "[2]; PG=0", "result": "−4.31", "unit": "log10M"}, {"measurement": "Log10GI50", "setting": "[2]; PG=+50", "result": "−5.94", "unit": "log10M"}, {"measurement": "Log10GI50", "setting": "[2]; Table IV (LC50, PG=−50)", "result": ">−4.00", "unit": "log10M"}, {"measurement": "Log10TGI", "setting": "[3]; PG=0", "result": ">−4.00", "unit": "log10M"}, {"measurement": "Log10GI50", "setting": "[3]; PG=+50", "result": "−6.03", "unit": "log10M"}, {"measurement": "Log10GI50", "setting": "[3]; Table IV (LC50, PG=−50)", "result": ">−4.00", "unit": "log10M"}, {"measurement": "Log10TGI", "setting": "[4]; PG=0", "result": ">−4.00", "unit": "log10M"}, {"measurement": "Log10 GI50 or Log10 LC50", "setting": "[4]; PG=+50", "result": "−6.03", "unit": "log10M"}, {"measurement": "Log10TGI", "setting": "[5]; PG=0", "result": ">−4.00", "unit": "log10M"}, {"measurement": "Log10 GI50 (PG=+50) or Log10 LC50 (PG=−50)", "setting": "[5]; PG=+50", "result": "−6.02", "unit": "log10M"}, {"measurement": "Log10 GI50 (PG=+50) or Log10 LC50 (PG=−50)", "setting": "[5]; Table IV (LC50, PG=−50)", "result": ">−4.00", "unit": "log10M"}, {"measurement": "Log10TGI", "setting": "[6]; PG=0", "result": "−4.93", "unit": "log10M"}, {"measurement": "Log10 GI50 or LC50", "setting": "[6]; PG=+50", "result": "−5.80", "unit": "log10M"}, {"measurement": "Log10 GI50 or LC50", "setting": "[6]; Table IV (LC50, PG=−50)", "result": ">−4.00", "unit": "log10M"}, {"measurement": "Log10TGI", "setting": "[7]; PG=0", "result": ">−4.00", "unit": "log10M"}, {"measurement": "Log10GI50", "setting": "[7]; PG=+50", "result": "−4.90", "unit": "log10M"}, {"measurement": "Log10GI50", "setting": "[7]; Table IV (LC50, PG=−50)", "result": ">−4.00", "unit": "log10M"}, {"measurement": "Log10TGI", "setting": "[8]; PG=0", "result": ">−4.00", "unit": "log10M"}, {"measurement": "Log10 GI50 (PG=+50) or Log10 LC50 (PG=−50), as given per row condition", "setting": "[8]; PG=+50", "result": "−6.12", "unit": "log10M"}, {"measurement": "Log10 GI50 (PG=+50) or Log10 LC50 (PG=−50), as given per row condition", "setting": "[8]; Table IV (LC50, PG=−50)", "result": ">−4.00", "unit": "log10M"}, {"measurement": "Log10TGI", "setting": "[9]; PG=0", "result": "−6.21", "unit": "log10M"}, {"measurement": "Log10GI50", "setting": "[9]; PG=+50", "result": "−6.21", "unit": "log10M"}, {"measurement": "Log10GI50", "setting": "[9]; Table IV (LC50, PG=−50)", "result": ">−4.00", "unit": "log10M"}, {"measurement": "Log10TGI", "setting": "[10]; PG=0", "result": ">−4.00", "unit": "log10M"}, {"measurement": "Log10 GI50 or LC50 (see conditions)", "setting": "[10]; PG=+50", "result": "−5.71", "unit": "log10M"}, {"measurement": "Log10 GI50 or LC50 (see conditions)", "setting": "[10]; Table IV (LC50, PG=−50)", "result": ">−4.00", "unit": "log10M"}, {"measurement": "Log10TGI", "setting": "[11]; PG=0", "result": "−4.70", "unit": "log10M"}, {"measurement": "Log10 GI50 or LC50 (per conditions)", "setting": "[11]; PG=+50", "result": "−5.67", "unit": "log10M"}, {"measurement": "Log10 GI50 or LC50 (per conditions)", "setting": "[11]; Table IV (LC50, PG=−50)", "result": ">−4.00", "unit": "log10M"}, {"measurement": "Log10TGI", "setting": "[12]; PG=0", "result": "−4.82", "unit": "log10M"}, {"measurement": "Log10GI50", "setting": "[12]; PG=+50", "result": "−5.65", "unit": "log10M"}, {"measurement": "Log10GI50", "setting": "[12]; Table IV (LC50, PG=−50)", "result": ">−4.00", "unit": "log10M"}, {"measurement": "Log10TGI", "setting": "[13]; PG=0", "result": ">−4.00", "unit": "log10M"}, {"measurement": "Log10GI50", "setting": "[13]; PG=+50", "result": "−5.17", "unit": "log10M"}, {"measurement": "Log10GI50", "setting": "[13]; Table IV (LC50, PG=−50)", "result": ">−4.00", "unit": "log10M"}, {"measurement": "Log10TGI", "setting": "[14]; PG=0", "result": ">−4.00", "unit": "log10M"}, {"measurement": "Log10GI50", "setting": "[14]; PG=+50", "result": "−5.90", "unit": "log10M"}, {"measurement": "Log10GI50", "setting": "[14]; Table IV (LC50, PG=−50)", "result": ">−4.00", "unit": "log10M"}, {"measurement": "antiproliferative activity in words", "setting": "[15]", "result": "at least as antiproliferative as calcitriol"}, {"measurement": "Log10TGI", "setting": "[16]; PG=0", "result": ">−4.33", "unit": "log10M"}, {"measurement": "Log10GI50 or Log10LC50 (see condition)", "setting": "[16]; PG=+50", "result": "−5.85", "unit": "log10M"}, {"measurement": "Log10GI50 or Log10LC50 (see condition)", "setting": "[16]; Table IV (LC50, PG=−50)", "result": ">−4.33", "unit": "log10M"}, {"measurement": "Log10TGI", "setting": "[17]; PG=0", "result": "−6.71", "unit": "log10M"}, {"measurement": "Log10GI50", "setting": "[17]; PG=+50", "result": "−6.71", "unit": "log10M"}, {"measurement": "Log10GI50", "setting": "[17]; Table IV (LC50, PG=−50)", "result": ">−4.00", "unit": "log10M"}, {"measurement": "Log10TGI", "setting": "[18]; PG=0", "result": ">−4.00", "unit": "log10M"}, {"measurement": "Log10GI50", "setting": "[18]; PG=+50", "result": "−5.44", "unit": "log10M"}, {"measurement": "Log10GI50", "setting": "[18]; Table IV (LC50, PG=−50)", "result": ">−4.00", "unit": "log10M"}, {"measurement": "Log10TGI", "setting": "[19]; PG=0", "result": ">−4.00", "unit": "log10M"}, {"measurement": "Log10GI50", "setting": "[19]; PG=+50", "result": "−4.55", "unit": "log10M"}, {"measurement": "Log10GI50", "setting": "[19]; Table IV (LC50, PG=−50)", "result": ">−4.00", "unit": "log10M"}]}]}
